{"source": "patent US20090175845A1", "about": "“METHODS FOR IDENTIFYING COMPOUNDS THAT MODULATE PHB DOMAIN PROTEIN ACTIVITY AND COMPOSITIONS THEREOF” (THE TRUSTEES OF COLUMBIA UNIVERSITY IN THE CITY OF NEW YORK, priority 2005, published 2009)", "key": {"[1]": {"biological_target": "T1, MEC-2 (Caenorhabditis elegans, UniProt Q27433)", "T1 construct": "expressed in transfected cells; host or cells: HEK 293T", "T1 sequence (Q27433 1-481)": "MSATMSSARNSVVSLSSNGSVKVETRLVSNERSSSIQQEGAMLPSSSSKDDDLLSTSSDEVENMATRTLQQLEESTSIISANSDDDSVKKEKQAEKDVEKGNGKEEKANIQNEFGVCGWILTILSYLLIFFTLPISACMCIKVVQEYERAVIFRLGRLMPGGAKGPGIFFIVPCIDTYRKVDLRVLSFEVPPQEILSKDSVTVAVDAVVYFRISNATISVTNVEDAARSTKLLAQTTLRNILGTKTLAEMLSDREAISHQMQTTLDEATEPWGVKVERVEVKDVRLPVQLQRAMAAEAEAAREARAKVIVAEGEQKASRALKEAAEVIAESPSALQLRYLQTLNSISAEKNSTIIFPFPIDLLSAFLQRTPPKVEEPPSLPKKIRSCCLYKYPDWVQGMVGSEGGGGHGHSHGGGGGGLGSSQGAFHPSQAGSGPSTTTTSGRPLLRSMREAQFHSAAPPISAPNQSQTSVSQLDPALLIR", "assay": "Photoaffinity labeling with photoactivatable lipids in HEK 293T cells", "assay_type": "binding, C. elegans", "details": "MEC-2 expressed in HEK 293T cells, 16 hours, UV irradiation, autoradiography", "protocol": "(§1) Photoaffinity labeling. Experiments were performed as described infra. For labeling with [3H]photocholesterol or [3H]photophosphatidylcholine, cells were supplemented with delipidized FCS and [3H]photocholesterol-MBCD complex or 10-azi-stearate and [3H]choline were added. After 16 hours, cells were washed three times with Ca/Mg-PBS (PBS containing 0.1 mM CaCl2 and 1 mM MgCl2) and irradiated for 30 minutes in Ca/Mg-PBS with a 100 W mercury lamp. For further analysis, cells were lysed on ice for 1 h in lysis buffer (50 mM Tris-HCl pH 7.4, 140 mM NaCl, 5 mM EDTA, 0.5 mM phenylmethylsulfonyl fluoride (PMSF), 1% Triton® X-100, 0.5% deoxycholate). The lysate was centrifuged for eight minutes at 10,000×g, and the supernatant was subjected to immunoprecipitation using an anti-FLAG monoclonal antibody. Aliquots of the starting extract, the supernatants after immunoprecipitation and the immunoprecipitates were separated by SDS-PAGE (12%) followed by blotting of the proteins on PVDF membrane. Radioactivity was detected by phosphoimaging (Fujifilm BAS-2500, Fuji Photo Film Co., Ltd, Japan) using a Tritium-sensitive BAS-TR2025 imaging plate (Fuji Photo Film Co., Ltd, Japan). From the same membrane, an immunoblot was performed using anti-FLAG antibodies.\n(§2) Cell Culture Studies. Most cell studies used HEK 293T cells that were grown in DMEM as described [Huber et al. (2001) J. Biol. Chem. 18:18]. […]"}, "[2]": {"biological_target": "T2, Podocin (Mus musculus, UniProt Q91X05)", "T2 construct": "expressed in transfected cells; host or cells: HEK 293T", "T2 sequence (Q91X05 1-385)": "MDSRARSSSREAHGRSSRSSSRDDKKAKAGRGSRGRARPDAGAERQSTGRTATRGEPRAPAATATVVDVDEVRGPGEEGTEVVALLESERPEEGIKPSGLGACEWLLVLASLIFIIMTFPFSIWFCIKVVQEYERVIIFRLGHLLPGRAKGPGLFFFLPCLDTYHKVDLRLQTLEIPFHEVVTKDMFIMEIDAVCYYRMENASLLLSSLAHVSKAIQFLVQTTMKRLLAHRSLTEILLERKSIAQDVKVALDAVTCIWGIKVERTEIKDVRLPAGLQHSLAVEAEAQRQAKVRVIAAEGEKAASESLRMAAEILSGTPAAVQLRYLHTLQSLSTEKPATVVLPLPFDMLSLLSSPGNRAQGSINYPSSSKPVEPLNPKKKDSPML", "assay": "Photoaffinity labeling with photoactivatable lipids in HEK 293T cells", "assay_type": "binding", "details": "Podocin expressed in HEK 293T cells, 16 hours, UV irradiation, autoradiography", "protocol": "as §1, §2"}}, "data": [{"smiles": "CC(C)CCC[C@@H](C)[C@H]1CC[C@H]2[C@@H]3CC=C4C[C@@H](O)CC[C@]4(C)[C@H]3CC[C@]12C", "note": "[cholesterol]", "values": [{"measurement": "binding of photoactivatable lipid to MEC-2", "setting": "[1]", "result": "bound"}, {"measurement": "binding of photoactivatable lipid to Podocin", "setting": "[2]", "result": "bound"}]}]}
